# Assay results from patent publication US11896035B2, “Chemical mitigants in animal feed and feed ingredients” (priority 2014, dated 2024).
# System: PEDv
# Test: PEDv RT-PCR (Ct) in chemically treated, then inoculated feed matrices
# Parameters: species or system Porcine Epidemic Diarrhea virus
# Conditions: room temperature; for Spray Dried Plasma Average CT Count: spray dried animal plasma
# Procedure: In a third study, experiments were conducted to evaluate the effectiveness of various chemical mitigation strategies on post-processing contamination of PEDv in feed and feed components. Treatments were arranged in a 7×4 factorial with 6 chemical treatments plus a control, and 4 feed matrices. […] The 4 feed matrices included: 1) complete swine diet (complete nursery diet), 2) blood meal, 3) porcine meat and bone meal (MBM), and 4) spray-dried animal plasma. The 4 feed treatments×6 chemical treatments (plus 1 control) equaled 28-1 kg batches. The feed matrices were chemically treated first and then inoculated to represent post-processing contamination. […] There were 3 segregated replicates of each batch for each day of analysis. All samples were stored at room temperature. Untreated control supernant from each of the 4 feed matrixes on day 0 was harvested and aliquots frozen and used as controls for subsequent analysis days Each day these samples were used as laboratory controls to evaluate inter assay variation.
# Samples were analyzed for PEDv by RT-PCR. Analyzed values represent cycle time or cycle threshold (Ct.) before detection, Lower Ct values indicate greater nucleic acid presence, but not necessarily infectivity. Data were analyzed using the GLIMMIX procedure of SAS with fixed effects of chemical treatment, matrix, and time, as well as all interactions.
compound,measurement,setting,value
"[Na+].[O-][Cl+2]([O-])[O-] [Sodium chlorate, sodium chlorate]",Porcine Blood Meal Average Ct Count,day 0,29
same,Porcine Blood Meal Average Ct Count,day 1,29
same,Porcine Blood Meal Average Ct Count,day 3,31
same,Porcine Blood Meal Average Ct Count,day 7,32
same,Porcine Blood Meal Average Ct Count,day 14,33
same,Porcine Blood Meal Average Ct Count,day 21,36
same,Porcine Blood Meal Average Ct Count,day 42,36
same,Porcine Meat and Bone Meal Average CT Count,day 0,26
same,Porcine Meat and Bone Meal Average CT Count,day 1,25
same,Porcine Meat and Bone Meal Average CT Count,day 3,27
same,Porcine Meat and Bone Meal Average CT Count,day 7,27
same,Porcine Meat and Bone Meal Average CT Count,day 14,28
same,Porcine Meat and Bone Meal Average CT Count,day 21,27
same,Porcine Meat and Bone Meal Average CT Count,day 42,29
same,Spray Dried Plasma Average CT Count,day 0,28
same,Spray Dried Plasma Average CT Count,day 1,26
same,Spray Dried Plasma Average CT Count,day 3,28
same,Spray Dried Plasma Average CT Count,day 7,28
same,Spray Dried Plasma Average CT Count,day 14,28
same,Spray Dried Plasma Average CT Count,day 21,29
same,Spray Dried Plasma Average CT Count,day 42,28
same,Swine Diet Average Ct Count,day 0,28
same,Swine Diet Average Ct Count,day 1,28
same,Swine Diet Average Ct Count,day 3,29
same,Swine Diet Average Ct Count,day 7,30
same,Swine Diet Average Ct Count,day 14,29
same,Swine Diet Average Ct Count,day 21,32
same,Swine Diet Average Ct Count,day 42,32
